Measured values from ChEMBL document CHEMBL5046281, “N-Aryl Mercaptopropionamides as Broad-Spectrum Inhibitors of Metallo-β-Lactamases” (J Med Chem, 2022).
Active and inactive are the calls of the source. The rule behind the calls is not given here.

How the values were obtained:
Escherichia coli [1] = experiment: Antibacterial activity against NDM-1 expressing Escherichia coli isolates assessed as inhibition of bacterial growth by microdilution method; assay type: functional, organism-based
[2] = Selectivity ratio of MIC for antibacterial activity against VIM-1 producing Enterobacter cloacae T2353 clinical isolates to MIC for potentiation of imipenem-induced antibacterial activity against VIM-1 producing Enterobacter cloacae T2353 clinical isolates assessed as imipenem MIC at 128 mg/l; assay type: functional
[3] = Selectivity ratio of MIC for antibacterial activity against NDM-1 producing Enterobacter cloacae T2311 clinical isolates to MIC for potentiation of imipenem-induced antibacterial activity against NDM-1 producing Enterobacter cloacae T2311 clinical isolates assessed as imipenem MIC at 128 mg/l; assay type: functional
Enterobacter cloacae [4] = experiment: Potentiation of imipenem-induced antibacterial activity against GIM-1 producing Enterobacter cloacae T2218 clinical isolates assessed as imipenem MIC at 128 mg/l by microdilution method; assay type: functional
Pseudomonas aeruginosa = experiment: Inhibition of Pseudomonas aeruginosa quorum sensing system LasB at 100 uM
[5] = Selectivity ratio of MIC for antibacterial activity against OXA-23 producing Acinetobacter baumannii T2434 clinical isolates to MIC for potentiation of imipenem-induced antibacterial activity against OXA-23 producing Acinetobacter baumannii T2434 clinical isolates assessed as imipenem MIC at 128 mg/l; assay type: functional
Klebsiella pneumoniae [6] = experiment: Antibacterial activity against imipenem-resistant NDM-1-producing Klebsiella pneumoniae T2301 at 128 mg/L measured after 24 hrs by time-kill assay; assay type: functional, organism-based
[7] = Selectivity ratio of MIC for antibacterial activity against KPC-2 producing Escherichia coli T2435 clinical isolates to MIC for potentiation of imipenem-induced antibacterial activity against KPC-2 producing Escherichia coli T2435 clinical isolates assessed as imipenem MIC at 128 mg/l; assay type: functional
Escherichia coli [8] = experiment: Antibacterial activity against IMP-1 expressing Escherichia coli isolates assessed as inhibition of bacterial growth by microdilution method; assay type: functional, organism-based
Escherichia coli [9] = experiment: Potentiation of imipenem-induced antibacterial activity against KPC-2 producing Escherichia coli T2435 clinical isolates assessed as imipenem MIC at 128 mg/l by microdilution method; assay type: functional
[10] = Selectivity ratio of MIC for antibacterial activity against VIM-1 producing Pseudomonas aeruginosa T2357 clinical isolates to MIC for potentiation of imipenem-induced antibacterial activity against VIM-1 producing Pseudomonas aeruginosa T2357 clinical isolates assessed as imipenem MIC at 128 mg/l; assay type: functional
[11] = Inhibition of Escherichia coli NDM-1 using fluorocillin as substrate incubated for 30 mins by fluorescence based assay
Escherichia coli [12] = experiment: Potentiation of imipenem-induced antibacterial activity against NDM-1 producing Escherichia coli assessed as imipenem MIC at 8 ug/ml by microdilution method (reference value: 128 ug/ml); assay type: functional; details: dose 8 µg/ml
Escherichia coli [13] = experiment: Potentiation of imipenem-induced antibacterial activity against NDM-1 producing Escherichia coli assessed as fold change in imipenem MIC at 128 ug/ml by microdilution method; assay type: functional; details: dose 128 µg/ml
Escherichia coli [14] = experiment: Potentiation of imipenem-induced antibacterial activity against NDM-1 producing Escherichia coli assessed as fold change in imipenem MIC at 32 ug/ml by microdilution method; assay type: functional; details: dose 32 µg/ml
Escherichia coli [15] = experiment: Antibacterial activity against VIM-1 expressing Escherichia coli isolates assessed as inhibition of bacterial growth by microdilution method; assay type: functional, organism-based
Klebsiella pneumoniae [16] = experiment: Selectivity ratio of MIC for antibacterial activity against NDM-1 producing Klebsiella pneumoniae T2301 clinical isolates to MIC for potentiation of imipenem-induced antibacterial activity against NDM-1 producing Klebsiella pneumoniae T2301 clinical isolates assessed as imipenem MIC at 128 mg/l
Escherichia coli [17] = experiment: Potentiation of imipenem-induced antibacterial activity against NDM-1 producing Escherichia coli assessed as imipenem MIC at 128 ug/ml by microdilution method (reference value: 128 ug/ml); assay type: functional; details: dose 128 µg/ml
[18] = target: Disintegrin and metalloproteinase domain-containing protein 17 (Homo sapiens) (UniProt P78536); experiment: Inhibition of human TACE at 100 uM relative to control
Sequence of Disintegrin and metalloproteinase domain-containing protein 17 (Homo sapiens) (P78536 whole entry, the tested form may be a part): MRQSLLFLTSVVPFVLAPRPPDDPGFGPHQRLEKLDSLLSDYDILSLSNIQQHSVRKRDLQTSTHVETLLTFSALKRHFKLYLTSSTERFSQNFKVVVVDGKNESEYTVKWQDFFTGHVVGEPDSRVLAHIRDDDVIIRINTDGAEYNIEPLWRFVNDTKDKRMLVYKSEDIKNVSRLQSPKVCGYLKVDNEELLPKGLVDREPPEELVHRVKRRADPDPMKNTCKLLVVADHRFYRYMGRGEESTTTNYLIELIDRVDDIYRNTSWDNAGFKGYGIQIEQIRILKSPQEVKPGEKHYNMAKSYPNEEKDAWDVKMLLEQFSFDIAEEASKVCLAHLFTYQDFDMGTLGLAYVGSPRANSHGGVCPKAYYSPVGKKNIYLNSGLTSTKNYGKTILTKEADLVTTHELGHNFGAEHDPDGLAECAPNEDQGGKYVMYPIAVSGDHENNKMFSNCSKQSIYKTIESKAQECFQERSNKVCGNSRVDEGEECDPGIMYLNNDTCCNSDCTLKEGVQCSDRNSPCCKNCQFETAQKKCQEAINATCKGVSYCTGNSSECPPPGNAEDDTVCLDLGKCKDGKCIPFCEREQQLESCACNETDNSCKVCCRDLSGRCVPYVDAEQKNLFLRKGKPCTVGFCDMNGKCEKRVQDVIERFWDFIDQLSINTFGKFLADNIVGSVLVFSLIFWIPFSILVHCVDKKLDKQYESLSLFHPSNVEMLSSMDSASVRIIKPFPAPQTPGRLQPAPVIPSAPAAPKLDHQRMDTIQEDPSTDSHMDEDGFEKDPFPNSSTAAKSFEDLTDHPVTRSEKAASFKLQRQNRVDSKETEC

[19] = target: 72 kDa type IV collagenase (Homo sapiens, UniProt P08253); experiment: Inhibition of human MMP-2 at 100 uM relative to control
Sequence of 72 kDa type IV collagenase (P08253 110-660 limits assumed): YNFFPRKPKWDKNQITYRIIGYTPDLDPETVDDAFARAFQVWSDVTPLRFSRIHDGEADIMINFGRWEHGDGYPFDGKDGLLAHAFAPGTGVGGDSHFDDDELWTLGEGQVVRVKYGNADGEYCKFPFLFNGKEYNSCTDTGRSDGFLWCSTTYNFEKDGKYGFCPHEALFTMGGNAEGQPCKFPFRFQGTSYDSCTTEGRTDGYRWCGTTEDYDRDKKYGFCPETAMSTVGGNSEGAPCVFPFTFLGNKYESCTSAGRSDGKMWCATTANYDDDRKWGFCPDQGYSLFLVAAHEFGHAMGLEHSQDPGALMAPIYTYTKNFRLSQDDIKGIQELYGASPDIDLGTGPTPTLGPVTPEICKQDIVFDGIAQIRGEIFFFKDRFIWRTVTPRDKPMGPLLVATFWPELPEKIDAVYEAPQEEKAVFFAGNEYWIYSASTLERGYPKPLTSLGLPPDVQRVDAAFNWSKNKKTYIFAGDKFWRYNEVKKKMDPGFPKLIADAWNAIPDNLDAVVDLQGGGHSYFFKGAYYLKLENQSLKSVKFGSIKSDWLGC

BlaVIM-1 = BlaVIM-1 (Escherichia coli, UniProt Q8GDC1); experiment: Inhibition of Escherichia coli VIM-1 using fluorocillin as substrate incubated for 30 mins by fluorescence based assay
Enterobacter cloacae [20] = experiment: Potentiation of imipenem-induced antibacterial activity against NDM-1 producing Enterobacter cloacae T2311 clinical isolates assessed as imipenem MIC at 128 mg/l by microdilution method; assay type: functional
[21] = target: Neutrophil collagenase (Homo sapiens) (UniProt P22894); experiment: Inhibition of human MMP-8 at 100 uM relative to control
Sequence of Neutrophil collagenase (Homo sapiens) (P22894 101-467 limits assumed): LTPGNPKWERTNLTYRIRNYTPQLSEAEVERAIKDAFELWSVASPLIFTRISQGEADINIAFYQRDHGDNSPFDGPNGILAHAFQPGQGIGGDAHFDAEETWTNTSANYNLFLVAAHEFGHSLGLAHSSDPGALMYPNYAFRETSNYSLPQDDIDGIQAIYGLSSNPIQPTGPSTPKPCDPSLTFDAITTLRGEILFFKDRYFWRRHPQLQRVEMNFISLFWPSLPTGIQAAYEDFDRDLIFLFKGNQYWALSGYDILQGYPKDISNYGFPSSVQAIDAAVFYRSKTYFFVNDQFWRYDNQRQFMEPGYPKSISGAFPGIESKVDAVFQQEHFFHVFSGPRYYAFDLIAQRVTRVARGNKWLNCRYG

Acinetobacter baumannii = experiment: Potentiation of imipenem-induced antibacterial activity against OXA-23 producing Acinetobacter baumannii T2434 clinical isolates assessed as imipenem MIC at 128 mg/l by microdilution method; assay type: functional
[22] = target: T1, Matrilysin (Homo sapiens) (UniProt P09237); experiment: Inhibition of human MMP-7 at 100 uM relative to control
T1 sequence (whole entry): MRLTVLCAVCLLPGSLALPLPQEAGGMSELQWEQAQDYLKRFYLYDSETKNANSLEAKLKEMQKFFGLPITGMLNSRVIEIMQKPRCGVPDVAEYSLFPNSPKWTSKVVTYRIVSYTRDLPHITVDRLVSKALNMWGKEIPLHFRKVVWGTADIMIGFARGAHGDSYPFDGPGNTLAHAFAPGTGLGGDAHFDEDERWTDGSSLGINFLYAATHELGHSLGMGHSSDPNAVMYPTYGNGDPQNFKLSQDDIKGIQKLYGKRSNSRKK

Escherichia coli [23] = experiment: Potentiation of imipenem-induced antibacterial activity against NDM-1 producing Escherichia coli assessed as fold change in imipenem MIC at 64 ug/ml by microdilution method; assay type: functional; details: dose 64 µg/ml
Serratia marcescens = experiment: Potentiation of imipenem-induced antibacterial activity against NDM-1 producing Serratia marcescens T2352 clinical isolates assessed as imipenem MIC at 128 mg/l by microdilution method; assay type: functional
HepG2 = experiment: Cytotoxicity against human HepG2 cells assessed as reduction in cell viability at 100 uM relative to control; assay type: toxicity, cell-based; details: hepg2, 100 µM
Escherichia coli [24] = experiment: Potentiation of imipenem-induced antibacterial activity against NDM-1 producing Escherichia coli assessed as fold change in imipenem MIC at 4 ug/ml by microdilution method; assay type: functional; details: dose 4 µg/ml
Klebsiella pneumoniae [25] = experiment: Antibacterial activity against imipenem-resistant NDM-1-producing Klebsiella pneumoniae T2301 at 128 mg/L measured after 24 hrs in presence of imipenem by time-kill assay; assay type: functional, organism-based
Escherichia coli [26] = experiment: Potentiation of imipenem-induced antibacterial activity against NDM-1 producing Escherichia coli assessed as imipenem MIC at 64 ug/ml by microdilution method (reference value: 128 ug/ml); assay type: functional; details: dose 64 µg/ml

## O=C(CCS)Nc1cccc(C(=O)O)c1
Escherichia coli [1]
  Activity: inactive
[2]
  Ratio: 2
[3]
  Ratio: 8
Enterobacter cloacae [4]
  MIC: 2 µg/mL
Pseudomonas aeruginosa
  inhibition: Active
[5]
  Ratio: 1
Klebsiella pneumoniae [6]
  Activity: inactive
[7]
  Ratio: 1
Escherichia coli [8]
  Activity: inactive
Escherichia coli [9]
  MIC: 4 µg/mL
[10]
  Ratio: 1
[11]
  IC50: 4 µM
Escherichia coli [12]
  MIC: 64 µg/mL
Escherichia coli [13]
  fold change (FC): 256
Escherichia coli [14]
  fold change (FC): 16
Escherichia coli [15]
  Activity: inactive
Klebsiella pneumoniae [16]
  Ratio: 32
Escherichia coli [17]
  MIC: ≤ 0.5 µg/mL
[18]
  inhibition: < 10%
[19]
  inhibition: < 10%
BlaVIM-1
  IC50: 1200 nM
Enterobacter cloacae [20]
  MIC: 1 µg/mL
[21]
  inhibition: < 10%
Acinetobacter baumannii
  MIC: 32 µg/mL
[22]
  inhibition: < 10%
Escherichia coli [23]
  fold change (FC): 64
Serratia marcescens
  MIC: 4 µg/mL
HepG2
  Activity: < 10%
Escherichia coli [24]
  fold change (FC): 1
Klebsiella pneumoniae [25]
  Activity: Active
Escherichia coli [26]
  MIC: 2 µg/mL
